# PMC10223120, “α-Viniferin-Induced Apoptosis through Downregulation of SIRT1 in Non-Small Cell Lung Cancer Cells” (Pharmaceuticals, 2023)
# Key:
# [1] = tested on: human SIRT1 enzyme; design: method as in doi:10.1177/1934578X1801301130; settings: cited from earlier work
# [2] = tested on: NCI-H460 cells; assay: MTT cell viability assay, NCI-H460 cells; type: cell-based, human
# Description: (§1) The Bioresource Collection and Research Center (BCRC) in Hsinchu, Taiwan provided the NCI-H460 and A549 cell lines, which were cultured in DMEM supplemented with 10% FBS, 100 U/mL penicillin A, and 100 U/mL streptomycin. These cells were kept at a temperature of 37 °C with 5% CO2 and a humidified air environment.
# (§2) To investigate the impact of α-viniferin (0–50 μM), ε-viniferin (0–50 μM), and signal transduction inhibitors (20 μM PD98059, 10 μM SB431542, 20 μM SP600125, 20 μΜ LY294002, 10 μM BIRB796, or 10 μM GO6976) on the viability of NCI-H460 or A549 cells were investigated using MTT assay. NCI-H460 or A549 cells were treated with various concentrations of α-viniferin, ε-viniferin, and signal transduction inhibitors and were incubated for 24, 48, or 72 h. Following incubation, 5 mg/mL MTT solution in phosphate-buffered saline (PBS) was added to each well, and the plate was further incubated for 4 h at 37 °C. Following this, the medium was aspirated, and DMSO was utilized to dissolve the MTT-formazan crystals. Finally, the solution was analyzed using a microplate reader at a wavelength of 540 nm.
# [3] = tested on: NCI-H460 cells; assay: Immunofluorescence assay of AIF localization (Hoechst 33258 nuclear stain); type: cell-based, human; settings: 5, 10, 15, 20, 30 μM, 24 h
# Description: The immunofluorescence assay was conducted following the method described in a previous study to detect the localization of AIF in NCI-H460 cells after treatment with α-viniferin at various concentrations (0, 5, 10, 15, 20, and 30 μM) for 24 h. After treatment, the cells in a 6-well plate were washed with PBS, and fixed immediately with 4% formaldehyde at room temperature for 15 min. Then, NCI-H460 cells were treated with 0.1% Triton X-100 in PBS at room temperature for 15 min to achieve permeabilization. After that, NCI-H460 cells were incubated with anti-AIF primary antibodies at 4 °C for 24 h, followed by incubation with secondary antibodies conjugated with fluorescein isothiocyanate at 37 °C for 1 h. To stain the cell nuclei, NCI-H460 cells were treated with a solution containing […] Hoechst 33,258 for 30 min. After washing the cells with PBS, they were mounted onto a glass slide for visualization. Confocal laser scanning microscopy was employed to capture the images. The mean fluorescence intensity, which represented the protein level, was analyzed using the Image J software.
# [4] = tested on: NCI-H460 cells; assay: Western blot of apoptosis-related proteins; type: cell-based, human; settings: 10, 15, 20, 30 μM, 24 h
# Description: The western blot analysis was conducted to check the expression levels of cleaved caspase-3, cleaved PARP, SIRT1, vimentin, and AKT phosphorylation in NCI-H460 cells after treatment with α-viniferin at various concentrations (0, 10, 15, 20, and 30 μM) for 24 h. After treatment, the cells in a 10-cm plate were lysed in an ice-cold lysis buffer, containing protease and […] inhibitors. The Bio-Rad protein assay kit (Bio-Rad Laboratories, Hercules, CA, USA) was utilized to measure the protein concentration in each lysate. Equal amounts of protein (50 μg) were loaded onto each lane, separated using sodium dodecyl sulfate-polyacrylamide gel electrophoresis (SDS-PAGE), and subsequently transferred onto polyvinylidene fluoride (PVDF) membranes. First, the membranes were blocked using 1% BSA in PBS at room temperature for 1 h. Then, the membranes incubated with primary antibodies against full length caspase-3, activated caspase-3, full length PARP, cleaved PARP, SIRT1, vimentin, and AKT phosphorylation, and followed by secondary antibodies conjugated with horseradish peroxidase were added to the samples. Finally, the immunoreactive bands were visualized using an enhanced chemiluminescence (ECL) detection system.
# [5] = tested on: NCI-H460 cells; assay: Annexin V/7-AAD double staining, flow cytometry; type: cell-based, human; settings: 24 h, control 5.3%
# Description: To investigate the molecular mechanism by which α-viniferin affects NCI-H460 cells, the presence of apoptotic and necrotic cells was analyzed using double staining with annexin V and 7-aminoactinomycin D (7-AAD). Annexin V, which binds to phosphatidylserine (PS), is used as a marker of early-stage apoptosis. The 7-ADD is a fluorescent DNA dye that is excluded from viable cells with intact membranes but can penetrate the plasma membrane of apoptotic and necrotic cells. Double staining with both annexin V and 7-AAD can differentiate between cells in different stages of apoptosis and necrosis. Specifically, cells that are annexin V+/7-AAD- are in early apoptosis, cells that are annexin V+/7-AAD+ are in late apoptosis, and cells that are annexin V-/7-AAD+ are in necrosis. Cells that are annexin V-/7-AAD- are considered viable. […] These findings implied dose-dependent induction of apoptosis by α-viniferin in NCI-H460 cells. The mechanism behind α-viniferin-induced apoptosis in NCI-H460 cells merits further investigation.
# The annexin V and 7-ADD double staining was utilized to detect apoptotic and necrotic cells. NCI-H460 cells were treated with α-viniferin at various concentrations (0, 5, 10, 20, and 30 μM) for 24 h. Following treatment, the cells were collected by trypsinization and suspended in a warm medium. The cells in a suspension were centrifuged at 2000× g for 5 min, and the resulting supernatant was removed, leaving the cell pellets. The pellets were subsequently resuspended in 200 µL of PBS and were fixed by adding […]. Next, the cell pellets that had been fixed were resuspended in 500 µL of 1 × annexin V-FITC Binding Buffer, to which 5 µL each of annexin V-FITC and 7-AAD staining reagents were added. The samples were then vortexed gently and incubated for 15 min at 4 °C in the dark. Finally, the samples were analyzed using a BD FACScan™ flow cytometer.
# [6] = tested on: A549; design: method as in PMID 34728247; settings: A549 cells; cited from earlier work
# [7] = Serum AST, CPK, LDH and creatinine in xenograft-bearing mice; type: in vivo, BALB/c nude mice; settings: 5 mg/kg i.p., five times every week, four weeks
# Description: (§3) The male BALB/c nude mice utilized in this investigation were obtained from the National Laboratory Animal Breeding and Research Center situated in Taiwan. All animal experimentation procedures were conducted in accordance with National Tsinghua University’s Institutional Animal Care and Use Committee Guidelines (Protocol No. 107049). For this study, the hind leg of five-week-old nude mice was subcutaneously implanted with 1 × 10^6 NCI-H460 cells. Treatment was initiated only after the tumors had grown to a volume of 100–200 mm^3. Subsequently, the nude mice with NCI-H460-cell xenografts were randomly allocated into two groups: experimental and control, each comprising five mice. The experimental group was administered 5 mg/kg α-viniferin through intraperitoneal injection five times every week, while the control group was administered PBS. After four weeks, the mice were euthanized. Tumor weight, vimentin expression, histopathological changes and apoptosis in the tumor section were evaluated using immunohistochemistry (IHC) staining, hematoxylin and eosin staining, and TUNEL assay. The quantification of AST, CPK, LDH, and creatinine levels was carried out following previously described procedures. Briefly, AST, LDH, CPK, and creatinine levels were quantified using commercial kits (Wako Pure Chemical Industries, Osaka, Japan).
# [8] = tested on: NSCLC cells; design: method as in PMID 35684095; settings: cited from earlier work
# [9] = tested on: osteosarcoma cells (HOS); design: method as in PMID 34728247; settings: cited from earlier work
# [10] = tested on: A549 lung cancer cells; design: method as in PMID 34728247; settings: cited from earlier work
# [11] = tested on: NCI-H460-cell xenografts; assay: In vivo xenograft tumor growth experiment; design: species or system BALB/c nude mice
# Description: as §3
# [12] = tested on: osteosarcoma cells (U2OS); design: method as in PMID 34728247; settings: cited from earlier work
# [13] = tested on: A549 cells; assay: MTT cell viability assay, A549 cells; type: cell-based, human; settings: low doses (20 μM)
# Description: as §1, §2
# [14] = 5 mg/kg i.p., five times every week, four weeks, compared with control
molecule,measurement,setting,value
Oc1ccc([C@H]2Oc3cc(O)cc(/C=C/c4ccc5c(c4)[C@@H](c4cc(O)cc6c4[C@H](c4cc(O)cc(O)c4)[C@@H](c4ccc(O)cc4)O6)[C@H](c4ccc(O)cc4)O5)c3[C@@H]2c2cc(O)cc(O)c2)cc1 [(−)-vitisin B],activity of the human SIRT1 enzyme,[1],inhibit the activity
"O=c1cc(N2CCOCC2)oc2c(-c3ccccc3)cccc12 [LY294002, reference compound]",cell viability,"[2]; inhibitor 20 μM, 24 h",decreased cell viability
"COc1cccc(-c2cc(=O)c3ccccc3o2)c1N [PD98059, reference compound]",cell viability,"[2]; inhibitor 20 μM, 24 h",decreased cell viability
Oc1ccc([C@H]2c3c(O)cc(O)cc3[C@H]3c4c(cc(O)cc4[C@@H]2c2cc(/C=C/c4cc(O)cc5c4[C@H](c4cc(O)cc(O)c4)[C@@H](c4ccc(O)cc4)O5)ccc2O)O[C@@H]3c2ccc(O)cc2)cc1 [vitisin A],activity of the human SIRT1 enzyme,[1],inhibit the activity
"Oc1ccc([C@H]2Oc3cc(O)cc4c3[C@@H]2c2cc(O)cc3c2[C@@H](c2cc(O)cc5c2[C@@H]4[C@H](c2ccc(O)cc2)O5)[C@H](c2ccc(O)cc2)O3)cc1 [α-viniferin, α-Viniferin]",AIF translocation to the nucleus,[3],translocated to the nucleus
same,DNA fragmentation,[3],caused DNA fragmentation
same,protein expression level of SIRT1,[4],decreased the protein expression levels
same,protein expression level of vimentin,[4],decreased the protein expression levels
same,protein expression of activated caspase-3,[4],increased the protein expression
same,protein expression of cleaved PARP,[4],increased the protein expression
same,AKT phosphorylation,[4]; normalized to AKT,decreased the protein expression levels
same,apoptotic cells (early + late apoptotic cells),[5]; 5 μM,7.0%
same,apoptotic cells (early + late apoptotic cells),[5]; 10 μM,8.3%
same,apoptotic cells (early + late apoptotic cells),[5]; 20 μM,22.3%
same,apoptotic cells (early + late apoptotic cells),[5]; 30 μM,35.0%
same,apoptosis,[6],induce apoptosis
same,"liver or kidney function (serum AST, CPK, LDH, creatinine)",[7],no negative impact
same,TGF-induced vimentin expression,[8],inhibit TGF-induced vimentin expression
same,apoptosis,[9],induce apoptosis
same,cell viability,"[2]; low doses 10–20 μM, 24, 48, 72 h",inhibited cell viability in a dose- and time-dependent manner
same,epithelial mesenchymal transition (EMT),[10],inhibit epithelial mesenchymal transition
same,apoptotic cells in tumor tissue (TUNEL staining),"[11]; 5 mg/kg i.p., five times every week, four weeks",increased numbers of apoptotic cells
same,tumor volume,[11]; [14],more significant reduction
same,tumor weight,[11]; [14],more significant reduction
same,vimentin expression in tumor (IHC),[11]; [14],reduced
same,tumor growth,"[11]; 5 mg/kg, i.p., five days/week",suppression of tumor growth
same,apoptosis,[12],induce apoptosis
Oc1ccc(/C=C/c2cc(O)cc3c2[C@@H](c2cc(O)cc(O)c2)[C@H](c2ccc(O)cc2)O3)cc1 [ε-viniferin],cell viability,[13],inhibited A549 cell viability
same,anti-proliferative effect,[2]; 20 μM,did not exhibit potent anti-proliferative effects
same,anti-proliferative effect,[2]; higher concentrations (above 20 μM),did demonstrate such effects
(+)-hopeaphenol,activity of the human SIRT1 enzyme,[1],inhibit the activity
